Source: US9597370B2, “Method for promoting hair growth” (INDUSTRIAL TECHNOLOGY RESEARCH INSTITUTE, priority 2013, dated 2017)
“Also recorded” adds a separate entry of the source.

These substances were tested on hair follicles on the dorsal skin at the refractory telogen phase (assay: mouse model of hair regeneration (sample applied on dorsal skin at refractory telogen phase)). Settings: high dosage level (2000 μM) administrated on the dorsal skin once a day for 10 days; female C57BL/6 mice; negative = no hair growth.
Type: in vivo
Text: The experimental model of the present disclosure is derived from the mouse model of the hair regeneration, which is studied by Dr. Chuong in University of Southern California.
The mouse model adopts female C57BL/6 mice (about 8 weeks).
In accordance with the reports (Muller-Rover et al., 2001; Plikus et al., 2009), after the hair removal on the dorsal skin of the female C57BL/6 mice by wax or uprooting, the hair follicles enter the anagen phase on the seventh day from hair removal. At this time, the dorsal hair will regenerate during the anagen phase, which continues fourteen days. Such step synchronizes all follicles on the dorsal skin.
The hair follicles on the dorsal skin enter the refractory telogen phase through the anagen phase. The refractory telogen phase continues twenty eight days. In the present disclosure, the sample solution is applied on the dorsal skin, where the hair follicle stays at the refractory telogen phase, to observe whether the peptides are beneficial to hair growth.
In some embodiments shown in FIG. 1, after the hair removal of the dorsal skin, the new growth hair is removed again at twenty first day after the first hair removal. […] The sample solution is applied on each of the sections for 10 days. The administration of the sample solution includes, but not limited to, the injection (50 μl) and the coating (10 μl). In addition, the dosage of the sample solution includes, but not limited to, the high dosage level (2000 μM) and the low dosage level (200 μM).
In order to avoid experimental error due to manual operation, a positive control and a negative control are predetermined on two sections. […] The second section 2 is coated with high dosage level of HGP or the pharmaceutical composition for 10 days (once a day). The third section 3 is coated with low dosage level of HGP or the pharmaceutical composition for 10 days (once a day). The fourth section 4 is coated with 100% alcohol for 10 days (once a day). The fourth section 4 is regarded as the negative control. The fifth section 5 is continuously injected with the high dosage of HGP or pharmaceutical composition for 10 days (once a day). The sixth section 6 is continuously injected with the low dosage of HGP or pharmaceutical composition for 10 days (once a day). The HGP prepared for the sections is the same amino acid sequence.
HGP or pharmaceutical composition having the same as referred at Table 1 is implemented through the above-mentioned process and then the hair regeneration condition is recorded every day. Since the period of the refractory telogen phase is 28 days, it is regarded as a negative result that no hair regeneration is observed at thirtieth day after the administration of the sample solution.
The number x of the hair growth in the table 3 means that the hair regeneration condition is observed at the x'th day after the high dosage level is administrated on the dorsal skin. For instance, the number (x=5) means that the hair growth is observed at the fifth day. Furthermore, the symbol NA represents the need for further analysis. […] In addition, the “negative” represents no hair growth by using the peptide in accordance with the experimental number.

With “AGSFFSGRSSSR (a designed peptide according to experiments) [P37]” as the substance, how does the “Number x (hair regeneration condition is observed at the x'th day after administration)” value (“Number x” for short) read?
Its value is 22 days.

How did the “Number x” value turn out when “AQAGSFVRSSSR (a designed peptide according to experiments) [P35]” was run?
Its value is “negative”.

“AQAVRSSSR (a designed peptide according to experiments) [P14]” was tested. Which “Number x” value did it give?
Its value is 22 days.

For “AVRSSSR (a designed peptide according to experiments) [P16]”, which “Number x” value is on record?
The value was “negative”.

With “GPLAQAVRSSSR (a designed peptide according to experiments) [P27]” as the substance, how does the “Number x” value read?
Its value is 22 days.

“GSFAQAVRSSSR (a designed peptide according to experiments) [P29]” was tested. Which “Number x” value did it give?
Its value is 22 days.

For “GSFGQAVRSSSR (a designed peptide according to experiments) [P30]”, which “Number x” value is on record?
Its value is “negative”.

How did the “Number x” value turn out when “GSFGSAVRSSSR (a designed peptide according to experiments) [P31]” was run?
Its value is 22 days.

How did the “Number x” value turn out when “GSFGSFVRSSSR (a designed peptide according to experiments) [P32]” was run?
Its value is “negative”.

Which “Number x” value does the source give for “GSLAQAVRSSSR (a designed peptide according to experiments) [P28]” here?
Its value is “negative”.

“LAQAGSVRSSSR (a designed peptide according to experiments) [P34]” was tested. Which “Number x” value did it give?
The value was “negative”.

“LAQAVRSSSR (a designed peptide according to experiments) [P13]” was tested. Which “Number x” value did it give?
Its value is 22 days.

“PLAQAVRSSSR (a designed peptide according to experiments) [P12]” was tested. Which “Number x” value did it give?
Its value is 22 days.

With “QAGSFGFRSSSR (a designed peptide according to experiments) [P36]” as the substance, how does the “Number x” value read?
Its value is “negative”.

How did the “Number x” value turn out when “QAVRSSSR (a designed peptide according to experiments) [P15]” was run?
Its value is “negative”.

“RSSSR (a designed peptide according to experiments) [P5]” was tested. Which “Number x” value did it give?
The value was 22 days.

For “SPLAQ (a designed peptide according to experiments) [P3]”, which “Number x” value is on record?
Its value is 22 days.

For “SPLAQA (a designed peptide according to experiments) [P11]”, which “Number x” value is on record?
The value was 22 days.

“SPLAQAGSFGSF (a designed peptide according to experiments) [P23]” was tested. Which “Number x” value did it give?
Its value is “negative”.

With “SPLAQAV (a designed peptide according to experiments) [P10]” as the substance, how does the “Number x” value read?
The value was 22 days.

Which “Number x” value does the source give for “SPLAQAVGSFGS (a designed peptide according to experiments) [P22]” here?
Its value is “negative”.

“SPLAQAVR (a designed peptide according to experiments) [P9]” was tested. Which “Number x” value did it give?
The value was 19 days.

“SPLAQAVRGSFG (a designed peptide according to experiments) [P21]” was tested. Which “Number x” value did it give?
The value was “negative”.

Which “Number x” value does the source give for “SPLAQAVRS (a designed peptide according to experiments) [P8]” here?
The value was “negative”.

Which “Number x” value does the source give for “SPLAQAVRSGSF (a designed peptide according to experiments) [P20]” here?
The value was “negative”.

“SPLAQAVRSS (a designed peptide according to experiments) [P7]” was tested. Which “Number x” value did it give?
Its value is 22 days.

Which “Number x” value does the source give for “SPLAQAVRSSGS (a designed peptide according to experiments) [P19]” here?
Its value is “negative”.

How did the “Number x” value turn out when “SPLAQAVRSSS (a designed peptide according to experiments) [P6]” was run?
The value was “negative”.

How did the “Number x” value turn out when SPLAQAVRSSSG [P18] was run?
The value was “negative”.

With “SPLAQAVRSSSR (a designed peptide according to experiments) [P1]” as the substance, how does the “Number x” value read?
Its value is 22 days.

With “SPLAQAVRSSSRT (a designed peptide according to experiments) [P26]” as the substance, how does the “Number x” value read?
Its value is “negative”.

“SPLAQAVRSSSRTP (a designed peptide according to experiments) [P25]” was tested. Which “Number x” value did it give?
Its value is “negative”.

How did the “Number x” value turn out when “SPLAQAVRSSSRTPS (a designed peptide according to experiments) [P4]” was run?
The value was 22 days.

With “SPLAQFRSSSRG (a designed peptide according to experiments) [P33]” as the substance, how does the “Number x” value read?
The value was “negative”.

For SPLAQGSFGSFG [P24], which “Number x” value is on record?
Its value is “negative”.

“VRSSS (a designed peptide according to experiments) [P2]” was tested. Which “Number x” value did it give?
The value was “negative”.

For “VRSSSR (a designed peptide according to experiments) [P17]”, which “Number x” value is on record?
Its value is “negative”.

What follows are substances tested on β-catenin (assay: TCF reporter assay in HaCaT Keratinocyte cell line). Settings: 200 μM peptide; HaCaT Keratinocytes; vs untreated CTL; listed as SEQ ID No: 1 peptide.
Type: cell-based
Description: FIG. 3 illustrates a schematic view of a TCF reporter assay in HaCaT Keratinocyte cell line. TOP represents that the reporter gene has a functional binding site where β-catenin is bound. […] CTL represents that HaCaT Keratinocytes are not treated with any stimulant. iPept-2 means that HaCaT Keratinocytes are treated with the SEQ ID No: 1 peptide.
(§1) The SEQ ID No. 1 peptide is treated in Human Hair Follicular Keratinocytes (HHFK) and HaCaT Keratinocyte to study the hair growth mechanism induced by the SEQ ID No. 1 peptide.
(§2) In the present disclosure, HHFK and HaCaT Keratinocyte are used as cell models for realizing the mechanism. Reporter assay is used as bioactivity assays to identify how the SEQ ID No. 1 peptide improves hair growth.

How did the “activity of β-catenin (relative luciferase activity, TOP/FOP reporter)” value turn out when “SPLAQAVRSSSR (a designed peptide according to experiments) [P1]” was run?
Its value is “increase the activity of β-catenin; also recorded: enhance activity of β-catenin”.

These substances were tested on β-catenin (assay: TCF reporter assay in Human Hair Follicular Keratinocytes (HHFK) cell line). Settings: 200 μM peptide, vs untreated CTL, listed as SEQ ID No: 1 peptide.
Type: cell-based
Description: FIG. 4 illustrates a schematic view of a TCF reporter assay in Human Hair Follicular Keratinocytes (HHFK) cell line. TOP represents that the reporter gene has a functional binding site where β-catenin is bound. […] CTL represents that HHFK cell line is not treated with any stimulant. iPept-2 means that HHFK cell line is treated with the SEQ ID No: 1 peptide.
as §1, §2

How did the “activity of β-catenin (relative luciferase activity, TOP/FOP reporter)” value turn out when “SPLAQAVRSSSR (a designed peptide according to experiments) [P1]” was run?
Its value is “increase the activity of β-catenin; also recorded: enhance activity of β-catenin”.
